Measurements published in PMC8955525 (2022).

Columns and labels:
[1] = system: FM1 r(CUG)10 (FM1 CUG × 10, r10FAM), annealed (RNA, repeat, fluorescein (fam) covalently incorporated between C13 and U14 (5th CUG repeat, hairpin loop)) CUGCUGCUGCUGCUGCUGCUGCUGCUGCUG; assay: UV melting, 260 nm; details: 100 mM NaCl; 10 mM sodium phosphate, pH 7.0; 1.5 µM RNA; L/M = 1; Tm 55.8 to 57.4 °C
[2] = system: FM1 r(CUG)10 (FM1 CUG × 10, r10FAM), annealed (RNA, repeat, fluorescein (fam) covalently incorporated between C13 and U14 (5th CUG repeat, hairpin loop)) CUGCUGCUGCUGCUGCUGCUGCUGCUGCUG; assay: fluorescence melting of internal FAM; details: none stated; nuclease-free water; 200 nM RNA; L/M = 1; Tm 52.2 to 54.9 °C; lower Tm at L/M > 1
[3] = system: FM1 r(CUG)10 (FM1 CUG × 10, r10FAM), annealed (RNA, repeat, fluorescein (fam) covalently incorporated between C13 and U14 (5th CUG repeat, hairpin loop)) CUGCUGCUGCUGCUGCUGCUGCUGCUGCUG; assay: fluorometer fluorescence titration, sigmoidal fit; details: none stated; nuclease-free water, 25 °C; 200 nM RNA; apparent; Langmuir fit 671 nM, quadratic fit 247 nM
[4] = system: native r(CUG)10 (r10) (RNA, repeat) CUGCUGCUGCUGCUGCUGCUGCUGCUGCUG; assay: UV melting, 260 nm; details: 100 mM NaCl, 10 mM sodium phosphate, pH 7.0, 1.5 µM RNA, L/M = 1, Tm 55.8 to 57.4 °C buffer, Tm 57.5 (L/M 0), 58.7 (L/M 1), 60.7 °C (L/M 16)
[5] = system: FM1 r(CUG)10 (FM1 CUG × 10, r10FAM), annealed (RNA, repeat, fluorescein (fam) covalently incorporated between C13 and U14 (5th CUG repeat, hairpin loop)) CUGCUGCUGCUGCUGCUGCUGCUGCUGCUG; assay: fluorescence microplate titration, sigmoidal fit; details: none stated; nuclease-free water, room temperature; 200 nM RNA; apparent
[6] = system: native r(CUG)7 (r7) (RNA, repeat) CUGCUGCUGCUGCUGCUGCUG; assay: UV melting, 260 nm; details: 100 mM NaCl; 10 mM sodium phosphate, pH 7.0; 1.5 µM RNA; L/M = 1; Tm 59.8 to 64.0 °C

| Compound | ΔTm [1] | ΔTm [2] | Kd [3] | binding [4] | Kd [5] | ΔTm [6] |
| --- | --- | --- | --- | --- | --- | --- |
| CN[C@@H]1[C@@H](O)[C@@H](O[C@@H]2[C@@H](O)[C@H](O[C@H]3OC(CN)=CC[C@H]3N)[C@@H](N)C[C@H]2N)OC[C@]1(C)O | ~ 1.5 °C | 2.7 °C | 945 nM | yes | 928 nM | 4 °C |
| NC[C@@H]1O[C@H](O[C@H]2[C@@H](O)[C@H](O[C@@H]3[C@@H](O)[C@H](N)C[C@H](N)[C@H]3O[C@H]3O[C@H](CN)[C@@H](O)[C@H](O)[C@H]3N)O[C@@H]2CO)[C@H](N)[C@@H](O)[C@@H]1O |  |  |  |  | 1054 nM |  |
| NC[C@H]1O[C@H](O[C@H]2[C@H](O)[C@@H](O[C@H]3O[C@H](CO)[C@@H](O)[C@H](N)[C@H]3O)[C@H](N)C[C@@H]2N)[C@H](O)[C@@H](O)[C@@H]1O |  |  |  |  | 1555 nM |  |
